Patent publication US10052368B2, “Pegylated tissue kallikrein, and preparation method therefor and uses thereof” (ZONHON BIOPHARMA INSTITUTE INC., priority 2013, dated 2018)
Entries after “also recorded” stand apart in the source; their conditions may differ.

Legend:
[1] = In vitro activity of PEG-KLK1 conjugates (BAEE degradation, absorbance change); type: biochemical; settings: BAEE substrate, versus original unmodified protein
Text: N-benzoyl-L arginine ethyl ester hydrochloride (BAEE, purchased from sigma Inc.) may be degraded by Kallikrein, and the activity of kininogenase may be determined according to the change in the absorbance before and after the enzymatic reaction, see Pharmacopoeia of People's Republic of China, pages 850-851, Section 2, 2010 version for a particular determination method. Samples to be detected were, respectively, SC-PEG5000-KLK1 (conjugate 1), Y-PALD-20K-KLK1 (conjugate 2), Y-PALD-30K-KLK1 (conjugate 3), and Y-PALD-40K-KLK1 (conjugate 4) from Preparation Example 1, and the original unmodified protein.
The recombinant expressed low-molecular weight human kallikrein (hK1K1) from Example 10 was modified with a Y-PALD-30K modifier, and after the modification, a mono-modified product (Y-PALD-30K-hK1K1) was prepared according to the method described in Example 1. […] According to the experimental method in Example 2, the activity of human kallikrein (hK1K1) before and after the modification was determined.
The recombinant human kallikrein expressed in CHO cells prepared in Example 12 was modified with a Y-PALD-30K modifier, and after the modification, a mono-modified product (Y-PALD-30K-rhK1K1) was prepared according to the method described in Example 1. […] According to the experimental method in Example 2, the activity of human kallikrein before and after the modification was determined.

[2] = test system: cerebral ischemia reperfusion model of middle cerebral artery obstruction (MCAO); experiment: Cerebral ischemia reperfusion model of middle cerebral artery obstruction (MCAO); type: in vivo; settings: SD rats, 3 μg/kg once via vena caudalis; for Cerebral infarction area (%) / Score of neurologic deficit symptom: 24 h after reperfusion; for Cerebral infarction area (%): TTC staining; for Score of neurologic deficit symptom: improved Bederson 5-point system
Text: A cerebral ischemia reperfusion model of middle cerebral artery obstruction (MCAO) was established by thread embolizing the internal carotid artery of SD rats (purchased from Shanghai Sippr bk Laboratory Animal Co. LTD.) A positive control 1 group (urinary kallikrein, Guangdong Tianpu Biochemical Pharmaceutical Co., LTD.), a positive control 2 group (tPA, Shanghai Boehringer Ingelheim Pharmaceuticals Co., LTD), a model control group (PBS), a sham group, a kallikrein group (from Changzhou Qianhong Biochemical Pharmaceutical Co., LTD.), a conjugate 1 group, a conjugate 2 group, a conjugate 3 group, and a conjugate 4 group were arranged respectively. Administration by injection through vena caudalis was performed once at 3 μg/kg (calculated according to the protein amount) immediately after the cerebral ischemia reperfusion. Neurologic deficit symptoms were observed 24 h after the reperfusion, and the cerebral infarction area was determined. In the model group, an equal volume of PBS was injected through vena caudalis into the rat. In the sham group, only blood vessels were separated, no embolizing thread was inserted, and an equal volume of PBS was injected through vena caudalis into the rats. Neurologic deficit symptoms were evaluated employing an improved Bederson 5-point system method. Neurologic deficit symptoms of the rats after brain trauma were evaluated by a single-blind method, i.e., the animals were marked according to groups by designers of the experiment, and scores of the neurologic deficit symptoms were given by experimenters blind to the grouping situation. The cerebral infarction area was calculated employing the following method. Cerebrums of the SD rats were stained with TTC (2,3,5-triphenyltetrazolium chloride) and then the photographs were subjected to statistics using an image analysis software, and the percentage of cerebral infarction area was calculated according to the following formula: % cerebral infarction area=100×(total ischemic area/total area on the right side)

[3] = Thermostability: activity after standing in a water bath at 65° C.; type: physicochemical; settings: for thermostability in comparison with the original protein: 65° C. water bath, 0-30 min
Experimental: In order to confirm whether the PEG modification can increase the stability of kallikrein, the activity of the conjugates 1 and 3 and the original protein after standing for a period of time in a water bath at 65° C. was detected respectively in this example. The method specifically included the following steps. The conjugates 1 and 3 and the unmodified kallikrein dissolved in a PBS buffer at a protein concentration of 1 mg/mL were stood in a water bath at 65° C., sampled at 0 min, 2.5 min, 5 min, 7.5 min, 10 min, 20 min, 25 min, and 30 min respectively, and stored in freezer at […] for later use. After sampling, the biological activity was detected by employing the method (i.e., the method described in appendix IX F in Pharmacopoeia of People's Republic of China, Section 3, 2005 version).

[4] = test system: db/db mice as animal models for diabetic nephropathy; experiment: Diabetic nephropathy model in db/db mice; type: in vivo; settings: for 24-h urea nitrogen after administration, compared with the model group / 24-h urine creatinine after administration, compared with the model group / 24-h urine protein after administration, compared with the model group / 24-h urine volume after administration, compared with the model group: 2 μg/kg via vena caudalis, 2 months, original protein once a week, conjugate 3 once every 2 weeks
Experimental: db/db mice (purchased from Shanghai Slaccas Experimental Animal Co., LTD., grade SPF, 8-week aged, male, with a conformity certification No. of 2007000552656) were employed as animal models for diabetic nephropathy. A model group, a kallikrein (purchased from Changzhou Qianhong Biochemical Pharmaceutical Co., LTD.) original protein group and a conjugate 3 group were provided respectively. The administered dose was 2 μg/kg (calculated according to the protein amount), through vena caudalis, where the model group and the original protein group were dosed once a week, and the conjugate 3 group was dosed once every 2 weeks, for 2 continuous months before detection of urine volume, urine protein, urea nitrogen and urine creatinine. (Urine protein detection kits, urine creatinine detection kits, and urea nitrogen detection kits were all purchased from Nanjing Jiaticheng Bioengineering Co., LTD.)

[5] = Pharmacokinetics by 125I isotope labelling tracer method; type: in vivo; settings: rats, 1.5 U/kg via vena caudalis; for T½β: 2-compartment model
Experimental: The in vivo blood drug concentrations of kallikrein before and after the PEG modification were studied employing a ^125I isotope labelling tracer method in this example. In order to reduce the absorption of the labelled drug by the thyroid gland of rats, 1 ml of a 1% KI (Sinopharm Group) solution was intraperitoneally injected about 8 hours before the experiment, to saturate the thyroid gland of the rats. The rats were randomly divided into 3 groups, i.e., a conjugate 3 group, a kallikrein group, and a urinary kallikrein group, 8 in each group, half male and half female (purchased from Experimental Animal Center of Zhejiang Province).
A particular operation method is as follows:
1. Hydroxy on the amino acid residue phenyl ring in a protein molecule is substituted with radioiodine, to obtain the above protein with ^125I having a radioactive tracing effect.
2. Numbering is performed on the rats using picric acid according to the numbering rule, and weighing is performed. After fixing with a rat fixer, administration is performed by injection through vena caudalis (1.5 U/kg). The rat is let go immediately after the dosage, and allowed to move around, drink water, and eat food freely.
3. 0.2 mL of blood is taken from eye sockets 1 min, 3 min, 10 min, 20 min, 40 min, 60 min, 2 h, 4 h, 8 h, 12 h, 24 h, 48 h, 72 h, 96 h, and 120 h respectively after the dosage, and EDTA is added therein for anticoagulation.
4. The rat plasma is subjected to centrifugal separation at 5000 rpm for 3 min, and determined for plasma radioactivity using a gamma counter (Anke Zhongjia, GC-911), for 1 min.
5. Plasma is recovered after radioactivity determination, and undegraded proteinogenous drugs are separated by HPLC (Shimadzu LC-20AT).

[6] = test system: anti-kallikrein antibody level in serum; set-up: species or system mice; settings: mouse, in vivo, 1 mg/kg
Experimental: Relative immunogenicity of different PEG-KLK1 conjugates to mice was determined in this example, and compared with the original protein. The experiment was divided into a conjugate 2 group, a conjugate 3 group, a urinary kallikrein group and an original protein group. 1 mg/kg (calculated according to the protein amount) of the above protein was injected through vena caudalis into the mice at a frequency of twice a week, for 4 continuous weeks. Blood was taken from eye sockets 1 week after administration. The anti-kallikrein antibody level in serum was determined by […].

Substance	activity retained, of the activity of the original protein [1] [%]	amelioration of cerebral infarction status of the model animals (in words) [2]	Cerebral infarction area (%) [2] [%]	Score of neurologic deficit symptom [2]	thermostability in comparison with the original protein [3]	activity after standing for 10 min at 65° C. ([3]; 1 mg/mL in PBS, 65° C., 10 min)	24-h urea nitrogen after administration, compared with the model group [4]	24-h urine creatinine after administration, compared with the model group [4]	24-h urine protein after administration, compared with the model group [4]	24-h urine volume after administration, compared with the model group [4]	AUC [5] [ng·h/mL]	CL [5] [mL/min/kg]	V [5] [L/kg]	T½β [5] [h]	activity after standing for 20 min at 65° C. ([3]; 1 mg/mL in PBS, 65° C., 20 min)	efficacy compared with the original protein group ([4]; conjugate 3 once every 2 weeks versus original protein once a week)	antibody titers on mice compared with kallikrein from porcine pancreas and urinary kallikrein [6]	relative immunogenicity to mice compared with conjugate 2 [6]
Y-PALD-40K-KLK1 [Conjugate 4]	86	essentially did not reduce; also recorded: no apparent amelioration	31.27 ± 5.08	2.65 ± 0.34	–	–	–	–	–	–	–	–	–	–	–	–	–	–
SC-PEG5000-KLK1 [Conjugate 1, reference compound]	81	only partially ameliorated; also recorded: slightly ameliorate	27.67 ± 4.34	2.45 ± 0.27	unobvious	–	–	–	–	–	–	–	–	–	–	–	–	–
Kallikrein	–	no apparent amelioration	26.52 ± 3.67	2.41 ± 0.19	–	substantially lost	significantly reduced	significantly reduced	significantly reduced	significantly reduced	18.59	2.17	3.53	18.81	–	–	–	–
Y-PALD-30K-rhK1K1	88	–	–	–	–	–	–	–	–	–	–	–	–	–	–	–	–	–
Y-PALD-30K-KLK1 [Conjugate 3]	90	apparent protective effects; also recorded: better therapeutic effect	17.16 ± 4.07	2.10 ± 0.23	significantly increased	–	significantly reduced	significantly reduced	significantly reduced	significantly reduced	113.62	0.33	0.64	20.03	still has a certain activity	apparently superior	much lower	slightly lower
Y-PALD-20K-KLK1 [Conjugate 2]	83	apparent protective effects; also recorded: better therapeutic effect	21.34 ± 1.70	2.27 ± 0.24	–	–	–	–	–	–	–	–	–	–	–	–	much lower	–
Y-PALD-30K-hK1K1	85	–	–	–	–	–	–	–	–	–	–	–	–	–	–	–	–	–
Positive control 1: urinary kallikrein sourced from human urine, Guangdong Tianpu Biochemical Pharmaceutical [reference compound]	–	–	24.49 ± 3.96	2.47 ± 0.21	–	–	–	–	–	–	11.68	3.5	5.16	17.49	–	–	–	–
